How the values were obtained:
[1] = system: New Zealand White rabbits; test: Histological observation of the organs of treated rabbits (Experimental Example 7, Step 5); assay type: in vivo, rabbit; settings: 8 weeks
Excerpt: Tissues of the lung, myocardium, kidney and muscle taken from the rabbits treated with the phenolic acid derivatives (BN30063, BN30064, BN30067) were visually examined for pathological changes using a microscope.

[2] = system: Sprague-Dawley rats; test: Effect on hyperlipemia in rats fed high-cholesterol diet (Experimental Example 6); assay type: in vivo, rat; settings: rats on 1% cholesterol diet, 6 weeks; for Atherogenic index (AI): (total cholesterol − HDL cholesterol)/HDL cholesterol; for HDL-cholesterol / Neutral fat / Total cholesterol: 0.02% lovastatin, 0.039% BN30063, 0.040% BN30064, 0.041% BN30067 in diet; for HDL-cholesterol / Neutral fat / Total cholesterol / HDL-cholesterol/total cholesterol: average
Excerpt: 50 of 4-week-old male white Sprague-Dawley rats (Bio Genomics Inc., Korea), each weighing about 90 to 110 g, were divided into five groups by a randomized block design. The rats of the five groups were fed with five different high-cholesterol diets, i.e., AIN-76 laboratory animal diets (TEKLAD premier Co., Madison, Wis., U.S.A.) containing 1% cholesterol (Control group), 1% cholesterol plus 0.02% lovastatin (Choongwae Pharma. Corp., Korea), 1% cholesterol plus 0.039% BN30063, 1% cholesterol plus 0.040% BN30064, and 1% cholesterol plus 0.041% BN30067, respectively, as shown in Table VII.
The animals were allowed free access to the specified diets and water for 6 weeks and the ingestion amounts were recorded daily. The rats were weighed every 7 days, and then the record was analyzed.
Blood samples were taken from vena hypogastrica of the rats of the five dietary groups raised for six weeks in Step 1. The blood was allowed to stand for 2 hours and centrifuged at 3,000 rpm for 15 minutes and the supernatant containing serum was separated and stored in a deep freezer before use. The total cholesterol level was measured using a diagnosis kit purchased from Sigma, Cat. No.: C0534, applying the method of Allain et al. (Allain et al., Clin. Chem., 20, 470-475 (1974)). The HDL fraction was separated using a kit purchased from Sigma, Cat. No.: 352-1 applying the heparin-manganese precipitation method (Waenic R. G. and Albers J. J., J Lipid Res., 19, 65-76 (1978)) and the HDL-cholesterol level was measured using a kit purchased from Sigma, Cat. No.: C9908. The neutral fat level was measured using a kit purchased from Sigma, Cat. No.: 336-10) applying the lipase-glycerol phosphate oxidase method (McGowan, M. W. et al., Clin. Chem., 29, 538-542(1983)).

Compound | Pathological changes in lung, myocardium, kidney and muscle (microscope) [1] | Atherogenic index (AI) [2] | Increase of HDL-cholesterol to total cholesterol as compared to the control group [2] [%] | Reduction of atherogenic index as compared to the control group [2] [%] | Reduction of neutral fat level as compared to the control group [2] [%] | Reduction of total plasma cholesterol level as compared to the control group [2] [%] | HDL-cholesterol [2] [mg/dL] | Neutral fat [2] [mg/dL] | Total cholesterol [2] [mg/dL] | HDL-cholesterol/total cholesterol [2] [%]
COC(=O)C(CO)NC(=O)CCc1ccc(O)c(O)c1 (stereo not drawn) [BN30063, 2-[3-(3,4-dihydroxyphenyl)propionylamino]-3-hydroxy propionic acid methyl ester] | no pathogenic abnormality was found | 1.39 | 78.28 | 57.75 | 49.41 | 29.8 | 28.97 | 52.31 | 68.06 | 43.25
CC(C)CC(NC(=O)CCc1ccc(O)c(O)c1)C(=O)O (stereo not drawn) [BN30064, 2-[3-(3,4-dihydroxyphenyl)propionylamino]-4-methyl pentanoic acid] | no pathogenic abnormality was found | 1.61 | 68.10 | 51.06 | 29.35 | 21.92 | 28.49 | 73.07 | 75.71 | 40.78
O=C(O)CC(NC(=O)CCc1ccc(O)c(O)c1)C(=O)O (stereo not drawn) [BN30067, 2-[3-(3,4-dihydroxyphenyl)propionylamino]-succinic acid] | no pathogenic abnormality was found | 1.96 | 42.70 | 40.43 | 63.87 | 27.82 | 23.81 | 37.37 | 69.99 | 34.62
CC[C@H](C)C(=O)O[C@H]1C[C@@H](C)C=C2C=C[C@H](C)[C@H](CC[C@@H]3C[C@@H](O)CC(=O)O3)[C@H]21 [Lovastatin, reference compound] |  | 2.58 | 20 | 21.58 | 18.92 | 10 | 24.83 | 83.85 | 86.51 | 29.13
